Tests used:
Format in all cases: cell-based, human
HS-SY-II cells = assay: Adherent cell line long-term (14-day) proliferation assay, CellTiter-Glo; conditions: 14-day long-term proliferation assay
Method: (§1) 96-well plating for 7 day assay: For each adherent cell line, plated cells in a volume of 100 μL in 96-well plates, to be treated in triplicate, either in the evening (to treat with compound the following day) or in morning (to treat with compound in the evening), to allow cells to attach to plates before compound treatment.
(§2) 6-well plates to be split for 7-14 day assay: Plated 2 mL of cells at the correct density in each well of the 6-well plate. Calculated the correct density from the 96-well plate growth curve by multiplying the 96-well density by 30. The factor 30 came from growth area of the 6-well plate divided by the growth area of the 96-well plate (9.5 cm^2/0.32 cm^2=29.7, rounded up to 30), which corresponds to 30-fold more surface area in a 6-well vs. a 96-well plate.
(§3) Day 0: Treated with compound or DMSO by removing media and adding back either 100 μL (for 96-well plate) or 2 mL (for 6-well plate) media with the correct dilutions of compound/DMSO. Table 1 includes an example of 96-well plate map. Plates were incubated for 96 hours.
(§4) Read one 96-well plate with CellTiter-Glo® for a Day 0 reading (media change not necessary for this plate).
(§5) Day 4: Read one 96-well plate with CellTiter-Glo® for a Day 4 reading (media change not necessary for this plate before reading). Replaced media with fresh media containing compound on Day 4 in 96-well plates and 6-well plates.
(§6) Day 7: read final 96-well plate with CellTiter-Glo®.
(§7) Counted individual wells of 6-well plates, and replated cells to initial plating density in 96-well plates, as described above.
(§8) Repeated steps for Days 0-7 for Days 7-14 of the proliferation assay.
(§9) Particularly, approximately 12 hours before compound treatment, HS-SY-II or SW982 cells were plated at the density of 24,000 cells/well and 7,500 cells/well, respectively in 6-well plates. On day 0, cells were treated with either DMSO or compound starting at 10 μmol/L and decreasing in fourfold dilutions. On day 7, the cells in 6-well plates were trypsinized, counted by TC10 automated cell counter (Bio-Rad, Richmond, Calif.) and replated at the density of 800 cells/well and 250 cells/well for HS-SY-II and SW982, respectively in 96-well plates in triplicate. The cells were allowed to adhere to the plate overnight, and treated with either DMSO or compound as on Day 0. On days 0, 7, 11, and 14, cell viability was determined by CellTiter-Glo® Luminescent Cell Viability Assay (Promega) with EnVision 2103 Multilabel Reader (Perkin-Elmer, Wellesley, Mass.). Compound/media was changed with new one on Day 4 and 11. The ratios of the measured values on Days 7, 11, and 14 to that of day 7 were used to plot proliferation from day 7 to day 14, and to calculate the IC50 values on Day 14. […]

SW982 cells = assay: as above; conditions: SW982, 14-day long-term proliferation assay
Method: as §1, §2, §3, §4, §5, §6, §7, §8, §9

[1] = system: ATF3, EGR1, CDKN2A expression in HS-SY-II cells; assay: Gene expression changes in vitro by RT-PCR, normalized to GAPDH; set-up: key to ATF3 expression change, significance 0 uM vs. / EGR1 expression change, significance 0 uM vs. / CDKN2A expression change, significance 0 uM vs.: *: Asterisks mean significant changes compared to levels of 0 μM-treated groups.; **: Asterisks mean significant changes compared to levels of 0 μM-treated groups.; ***: Asterisks mean significant changes compared to levels of 0 μM-treated groups.; ****: Asterisks mean significant changes compared to levels of 0 μM-treated groups; conditions: for ATF3 expression change, significance 0 uM vs. / CDKN2A expression change, significance 0 uM vs. / EGR1 expression change, significance 0 uM vs.: HS-SY-II
Method: (§10) HS-SY-II and SW982 cells were treated with EZH2 inhibitors (Compound A or EPZ-011989) and collected at the indicated time points. Total RNA isolation and cDNA synthesis were performed using the TaqMan Gene Expression Cells-to-CT kit (4399002, Life technologies) according to the manufacturer's protocol. ATF3, EGR1, CDKN2A and GAPDH expression were analyzed by using the TaqMan Gene Expression Assays (Life technologies, 4331182) and the TaqMan Probes (Hs00231069_m1, Hs00152928_m1, Hs00233365_m1, and Hs99999905_m1, respectively).

[2] = system: ATF3, EGR1 expression in SW982 cells; assay: as above; set-up: key to EGR1 expression change, significance 0 uM vs.: *: Asterisks mean significant changes compared to levels of 0 μM-treated groups.; **: Asterisks mean significant changes compared to levels of 0 μM-treated groups.; ***: Asterisks mean significant changes compared to levels of 0 μM-treated groups.; ****: Asterisks mean significant changes compared to levels of 0 μM-treated groups
Method: as §10

Structure (SMILES) | sensitivity of cell proliferation (HS-SY-II cells) | sensitivity of cell proliferation (SW982 cells) | ATF3 and EGR1 expression ([1]; HS-SY-II in vitro culture) | CDKN2A expression ([1]; HS-SY-II in vitro culture) | ATF3 expression change, significance 0 uM vs. ([1]; 0.1 uM, day 4) | CDKN2A expression change, significance 0 uM vs. ([1]; 0.1 uM, day 4) | EGR1 expression change, significance 0 uM vs. ([1]; 0.1 uM, day 4) | ATF3 expression change, significance 0 uM vs. ([1]; 1 uM, day 2) | CDKN2A expression change, significance 0 uM vs. ([1]; 1 uM, day 2) | ATF3 expression change, significance 0 uM vs. ([1]; 1 uM, day 4) | CDKN2A expression change, significance 0 uM vs. ([1]; 1 uM, day 4) | EGR1 expression change, significance 0 uM vs. ([1]; 1 uM, day 4) | ATF3 expression change, significance 0 uM vs. ([1]; 1 uM, day 7) | CDKN2A expression change, significance 0 uM vs. ([1]; 1 uM, day 7) | EGR1 expression change, significance 0 uM vs. ([1]; 1 uM, day 7) | EGR1 expression change, significance 0 uM vs. ([2]; SW 982, 0.1 uM, day 2) | EGR1 expression change, significance 0 uM vs. ([2]; SW 982, 0.1 uM, day 4) | EGR1 expression change, significance 0 uM vs. ([2]; SW 982, 1 uM, day 7) | ATF3 and EGR1 expression ([2]; SW982 in vitro culture)
CCN(c1cc(-c2ccc(CN3CCOCC3)cc2)cc(C(=O)NCc2c(C)cc(C)[nH]c2=O)c1C)[C@H]1CC[C@H](N(C)C)CC1 [Compound E] | high sensitivity | did not | – | – | – | – | – | – | – | – | – | – | – | – | – | – | – | – | –
CCN(c1cc(C#CCN2CCOCC2)cc(C(=O)NCc2c(C)cc(C)[nH]c2=O)c1C)C1CCC(N(C)CCOC)CC1 (stereo not shown) [EPZ-011989] | – | – | upregulated | Dose- and time-dependent CDKN2A upregulation | ** | **** | ** | * | *** | * | **** | ** | ** | **** | ** | * | ** | * | not in SW982

— US10946024B2, “Method for treating cancer” (Epizyme, Inc., priority 2014, dated 2021)
